Data: ChEMBL document CHEMBL3352227, “Synthesis, antimycobacterial and antibacterial evaluation of l-[(1R, 2S)-2-fluorocyclopropyl]fluoroquinolone derivatives containing an oxime functional moiety” (Eur J Med Chem, 2014)
In brackets after ≈: the same amount, converted by molar mass.

Legend:
Format in all cases: functional
Staphylococcus aureus [1] = assay: Antibacterial activity against methicillin-resistant Staphylococcus aureus 12-5 after 18 to 24 hrs by standard twofold serial dilution method
Staphylococcus aureus [2] = assay: Antibacterial activity against methicillin-sensitive Staphylococcus aureus 12-5 after 18 to 24 hrs by standard twofold serial dilution method
Klebsiella pneumoniae [3] = assay: Antibacterial activity against extended-spectrum beta-lactamase producin Klebsiella pneumoniae 12-4 after 18 to 24 hrs by standard twofold serial dilution method
Streptococcus pneumoniae [4] = assay: Antibacterial activity against Streptococcus pneumoniae 12-18 after 18 to 24 hrs by standard twofold serial dilution method
Pseudomonas aeruginosa [5] = assay: Antibacterial activity against Pseudomonas aeruginosa 12-14 after 18 to 24 hrs by standard twofold serial dilution method
Klebsiella pneumoniae [6] = assay: Antibacterial activity against Klebsiella pneumoniae 12-4 after 18 to 24 hrs by standard twofold serial dilution method
Escherichia coli [7] = assay: Antibacterial activity against Escherichia coli ATCC 25922 after 18 to 24 hrs by standard twofold serial dilution method
[8] = tested on: Staphylococcus epidermidis; assay: Antibacterial activity against methicillin-sensitive Staphylococcus epidermidis 12-1 after 18 to 24 hrs by standard twofold serial dilution method
Streptococcus pneumoniae [9] = assay: Antibacterial activity against Streptococcus pneumoniae ATCC 49619 after 18 to 24 hrs by standard twofold serial dilution method
Staphylococcus aureus [10] = assay: Antibacterial activity against Staphylococcus aureus ATCC 25923 after 18 to 24 hrs by standard twofold serial dilution method
Staphylococcus aureus [11] = assay: Antibacterial activity against methicillin-sensitive Staphylococcus aureus 12-4 after 18 to 24 hrs by standard twofold serial dilution method
[12] = tested on: Staphylococcus epidermidis; assay: Antibacterial activity against methicillin-sensitive Staphylococcus epidermidis 12-8 after 18 to 24 hrs by standard twofold serial dilution method
[13] = tested on: Staphylococcus epidermidis; assay: Antibacterial activity against methicillin-sensitive Staphylococcus epidermidis 12-6 after 18 to 24 hrs by standard twofold serial dilution method
Klebsiella pneumoniae [14] = assay: Antibacterial activity against Klebsiella pneumoniae 12-1 after 18 to 24 hrs by standard twofold serial dilution method
Klebsiella pneumoniae [15] = assay: Antibacterial activity against extended-spectrum beta-lactamase producin Klebsiella pneumoniae 12-3 after 18 to 24 hrs by standard twofold serial dilution method
[16] = tested on: Mycobacterium tuberculosis; assay: Antimycobacterial activity against Mycobacterium tuberculosis H37Rv ATCC 27294 by MABA method
Klebsiella pneumoniae [17] = assay: Antibacterial activity against extended-spectrum beta-lactamase producin Klebsiella pneumoniae 12-7 after 18 to 24 hrs by standard twofold serial dilution method
Escherichia coli [18] = assay: Antibacterial activity against extended-spectrum beta-lactamase producing Escherichia coli 12-15 after 18 to 24 hrs by standard twofold serial dilution method
[19] = tested on: Staphylococcus epidermidis; assay: Antibacterial activity against methicillin-resistant Staphylococcus epidermidis 12-6 after 18 to 24 hrs by standard twofold serial dilution method
[20] = tested on: Staphylococcus epidermidis; assay: Antibacterial activity against methicillin-sensitive Staphylococcus epidermidis 12-3 after 18 to 24 hrs by standard twofold serial dilution method
Klebsiella pneumoniae [21] = assay: Antibacterial activity against extended-spectrum beta-lactamase producin Klebsiella pneumoniae 12-14 after 18 to 24 hrs by standard twofold serial dilution method
Staphylococcus aureus [22] = assay: Antibacterial activity against methicillin-sensitive Staphylococcus aureus 12-1 after 18 to 24 hrs by standard twofold serial dilution method
[23] = tested on: Staphylococcus epidermidis; assay: Antibacterial activity against methicillin-resistant Staphylococcus epidermidis 12-1 after 18 to 24 hrs by standard twofold serial dilution method
Staphylococcus aureus [24] = assay: Antibacterial activity against methicillin-sensitive Staphylococcus aureus 12-2 after 18 to 24 hrs by standard twofold serial dilution method
Staphylococcus aureus [25] = assay: Antibacterial activity against methicillin-resistant Staphylococcus aureus 12-4 after 18 to 24 hrs by standard twofold serial dilution method
Staphylococcus aureus [26] = assay: Antibacterial activity against methicillin-resistant Staphylococcus aureus 12-2 after 18 to 24 hrs by standard twofold serial dilution method
Klebsiella pneumoniae [27] = assay: Antibacterial activity against Klebsiella pneumoniae 12-2 after 18 to 24 hrs by standard twofold serial dilution method
Escherichia coli [28] = assay: Antibacterial activity against extended-spectrum beta-lactamase producing Escherichia coli 12-2 after 18 to 24 hrs by standard twofold serial dilution method
Escherichia coli [29] = assay: Antibacterial activity against extended-spectrum beta-lactamase producing Escherichia coli 12-14 after 18 to 24 hrs by standard twofold serial dilution method
Escherichia coli [30] = assay: Antibacterial activity against Escherichia coli 12-1 after 18 to 24 hrs by standard twofold serial dilution method
Escherichia coli [31] = assay: Antibacterial activity against extended-spectrum beta-lactamase producing Escherichia coli 12-3 after 18 to 24 hrs by standard twofold serial dilution method
Pseudomonas aeruginosa [32] = assay: Antibacterial activity against Pseudomonas aeruginosa 12-12 after 18 to 24 hrs by standard twofold serial dilution method

For O=C(O)c1cn(C2CC2)c2cc(N3CCNCC3)c(F)cc2c1=O [CIPROFLOXACIN], the MIC (Staphylococcus aureus [1]) was 32 µg/mL (≈ 96.6 µM), the MIC (Staphylococcus aureus [2]) was 0.25 µg/mL (≈ 0.754 µM) and the MIC (Klebsiella pneumoniae [3]) was 4 µg/mL (≈ 12.1 µM). For the same compound, the MIC (Streptococcus pneumoniae [4]) was 1 µg/mL (≈ 3.02 µM), the MIC (Pseudomonas aeruginosa [5]) was 32 µg/mL (≈ 96.6 µM) and the MIC (Klebsiella pneumoniae [6]) was < 0.008 µg/mL. The MIC (Escherichia coli [7]) was < 0.008 µg/mL, the MIC [8] was 0.25 µg/mL (≈ 0.754 µM) and the MIC (Streptococcus pneumoniae [9]) was 0.25 µg/mL (≈ 0.754 µM). The MIC (Staphylococcus aureus [10]) was 0.25 µg/mL (≈ 0.754 µM), the MIC (Staphylococcus aureus [11]) was 0.25 µg/mL (≈ 0.754 µM) and the MIC [12] was 4 µg/mL (≈ 12.1 µM). It also gave an MIC [13] of 0.25 µg/mL (≈ 0.754 µM), an MIC (Klebsiella pneumoniae [14]) of 0.125 µg/mL (≈ 0.377 µM) and an MIC (Klebsiella pneumoniae [15]) of 32 µg/mL (≈ 96.6 µM). The MIC [16] was 0.25 µg/mL (≈ 0.754 µM), the MIC (Klebsiella pneumoniae [17]) was 0.5 µg/mL (≈ 1.51 µM) and the MIC (Escherichia coli [18]) was 64 µg/mL (≈ 193 µM). For the same compound, the MIC [19] was 16 µg/mL (≈ 48.3 µM), the MIC [20] was 2 µg/mL (≈ 6.04 µM) and the MIC (Klebsiella pneumoniae [21]) was 64 µg/mL (≈ 193 µM). For the same compound, the MIC (Staphylococcus aureus [22]) was 0.25 µg/mL (≈ 0.754 µM), the MIC [23] was 8 µg/mL (≈ 24.1 µM) and the MIC (Staphylococcus aureus [24]) was 0.25 µg/mL (≈ 0.754 µM). It also gave an MIC (Staphylococcus aureus [25]) of 64 µg/mL (≈ 193 µM), an MIC (Staphylococcus aureus [26]) of 64 µg/mL (≈ 193 µM) and an MIC (Klebsiella pneumoniae [27]) of 0.03 µg/mL (≈ 0.0905 µM).

For NNC(=O)c1ccncc1 [ISONIAZID], the MIC [16] was 0.05 µg/mL (≈ 0.365 µM).

Compound C[C@H]1COc2c(N3CCN(C)CC3)c(F)cc3c(=O)c(C(=O)O)cn1c23.C[C@H]1COc2c(N3CCN(C)CC3)c(F)cc3c(=O)c(C(=O)O)cn1c23.O [LEVOFLOXACIN] has an MIC (Staphylococcus aureus [1]) of 32 µg/mL, an MIC (Escherichia coli [28]) of 16 µg/mL and an MIC (Staphylococcus aureus [2]) of 0.125 µg/mL. The MIC (Klebsiella pneumoniae [3]) was 8 µg/mL, the MIC (Pseudomonas aeruginosa [5]) was 16 µg/mL and the MIC (Escherichia coli [29]) was 16 µg/mL. The MIC (Klebsiella pneumoniae [6]) was < 0.008 µg/mL, the MIC (Escherichia coli [7]) was < 0.008 µg/mL and the MIC [8] was 0.125 µg/mL. The MIC (Escherichia coli [30]) was 0.25 µg/mL, the MIC (Escherichia coli [31]) was 32 µg/mL and the MIC (Streptococcus pneumoniae [9]) was 0.125 µg/mL. For the same compound, the MIC (Staphylococcus aureus [10]) was < 0.008 µg/mL, the MIC (Pseudomonas aeruginosa [32]) was 0.5 µg/mL and the MIC (Staphylococcus aureus [11]) was 0.125 µg/mL. For the same compound, the MIC [12] was 4 µg/mL, the MIC [13] was 0.125 µg/mL and the MIC (Klebsiella pneumoniae [14]) was 0.06 µg/mL. For the same compound, the MIC (Klebsiella pneumoniae [15]) was 16 µg/mL, the MIC [16] was 0.25 µg/mL and the MIC (Escherichia coli [18]) was 32 µg/mL. It also gave an MIC [19] of 32 µg/mL, an MIC [20] of 0.5 µg/mL and an MIC (Klebsiella pneumoniae [21]) of 16 µg/mL. The MIC (Staphylococcus aureus [22]) was 0.125 µg/mL, the MIC [23] was 4 µg/mL and the MIC (Staphylococcus aureus [24]) was 0.125 µg/mL. The MIC (Staphylococcus aureus [25]) was 32 µg/mL, the MIC (Staphylococcus aureus [26]) was 32 µg/mL and the MIC (Klebsiella pneumoniae [27]) was < 0.008 µg/mL.

Compound COc1c(N2C[C@@H]3CCCN[C@@H]3C2)c(F)cc2c(=O)c(C(=O)O)cn(C3CC3)c12 [MOXIFLOXACIN] has an MIC (Staphylococcus aureus [1]) of 8 µg/mL (≈ 19.9 µM), an MIC (Escherichia coli [28]) of 32 µg/mL (≈ 79.7 µM) and an MIC (Staphylococcus aureus [2]) of 0.015 µg/mL (≈ 0.0374 µM). The MIC (Klebsiella pneumoniae [3]) was 0.5 µg/mL (≈ 1.25 µM), the MIC (Streptococcus pneumoniae [4]) was 0.5 µg/mL (≈ 1.25 µM) and the MIC (Pseudomonas aeruginosa [5]) was 16 µg/mL (≈ 39.9 µM). For the same compound, the MIC (Klebsiella pneumoniae [6]) was 0.03 µg/mL (≈ 0.0747 µM), the MIC (Escherichia coli [7]) was < 0.008 µg/mL and the MIC [8] was 0.03 µg/mL (≈ 0.0747 µM). For the same compound, the MIC (Escherichia coli [30]) was 0.5 µg/mL (≈ 1.25 µM), the MIC (Escherichia coli [31]) was 64 µg/mL (≈ 159 µM) and the MIC (Streptococcus pneumoniae [9]) was 0.06 µg/mL (≈ 0.149 µM). The MIC (Staphylococcus aureus [10]) was < 0.008 µg/mL, the MIC (Pseudomonas aeruginosa [32]) was 2 µg/mL (≈ 4.98 µM) and the MIC (Staphylococcus aureus [11]) was < 0.008 µg/mL. The MIC [12] was 1 µg/mL (≈ 2.49 µM), the MIC [13] was 0.03 µg/mL (≈ 0.0747 µM) and the MIC (Klebsiella pneumoniae [14]) was 0.015 µg/mL (≈ 0.0374 µM). For the same compound, the MIC (Klebsiella pneumoniae [15]) was 32 µg/mL (≈ 79.7 µM), the MIC (Klebsiella pneumoniae [17]) was 0.5 µg/mL (≈ 1.25 µM) and the MIC (Escherichia coli [18]) was 32 µg/mL (≈ 79.7 µM). For the same compound, the MIC [19] was 16 µg/mL (≈ 39.9 µM), the MIC [20] was 0.125 µg/mL (≈ 0.311 µM) and the MIC (Klebsiella pneumoniae [21]) was 64 µg/mL (≈ 159 µM). For the same compound, the MIC (Staphylococcus aureus [22]) was 0.015 µg/mL (≈ 0.0374 µM), the MIC [23] was 0.25 µg/mL (≈ 0.623 µM) and the MIC (Staphylococcus aureus [24]) was < 0.008 µg/mL. It also gave an MIC (Staphylococcus aureus [25]) of 8 µg/mL (≈ 19.9 µM), an MIC (Staphylococcus aureus [26]) of 8 µg/mL (≈ 19.9 µM) and an MIC (Klebsiella pneumoniae [27]) of 0.06 µg/mL (≈ 0.149 µM).

CO[C@H]1/C=C/O[C@@]2(C)Oc3c(C)c(O)c4c(O)c(c(/C=N/N5CCN(C)CC5)c(O)c4c3C2=O)NC(=O)/C(C)=C\C=C\[C@H](C)[C@H](O)[C@@H](C)[C@@H](O)[C@@H](C)[C@H](OC(C)=O)[C@@H]1C [RIFAMPIN] was tested, and the MIC [16] was 0.05 µg/mL (≈ 0.0608 µM).
